Measured values: US20170197977A9, “COMPOSITIONS AND METHODS FOR TREATING NEURODEGENERATIVE DISEASE” (COGNITION THERAPEUTICS, INC., priority 2011, published 2017)
“Also recorded” adds a separate entry of the source.

How the values were obtained:
[1] = tested on: caspase-3 activity in neurons; assay: Caspase-3 activity assay in neurons; assay type: cell-based
Experimental: The activation of endogenous caspase-3 by sigma-2 receptor ligands was measured using the Caspase-3 Colorimetric Activity Assay Kit (Milipore, Billerica, Mass.) according to the manufacture's protocol. Briefly, MDA-MB 435 or MDA-MB23I cells were plated at 0.5×10^6 cells 100 mm dish. 24 hours after plating, sigma-2 ligands were added to the culture dishes to induce caspase 3 activation. The final concentration of the sigma-2 ligand was its EC50. 24 hours after treatment, cells were harvested, lysed in 300 uL of Cell Lysis Buffer, and centrifuged for 5 minutes at 10,000×g. Supernatant was collected and incubated with caspase-3 substrate, DEVD-pNA, for 2 hours at 37° C. […] Compounds IXa,IXb and II behaved like sigma-2 […] in both cancer cells and neurons.

[2] = tested on: Abeta oligomer-induced membrane trafficking deficits; assay: Membrane trafficking/exocytosis (MTT) assay in mature primary hippocampal neurons; assay type: cell-based, rat; details: for Membrane trafficking when dosed in the absence of Abeta: compound alone
Experimental: The present exocytosis assay was adapted for use with mature primary neuronal cultures grown for 3 weeks in vitro.
The methods used to generate the results were as follows in the Membrane Trafficking/Exocytosis (MTT) assay.
Primary hippocampal neurons from E18 Sprague-Dawley rat embryos were plated at optimized concentrations in 384 well plates in NB media (Invitrogen). Neurons were maintained in cultures for 3 weeks, with twice weekly feeding of NB media with N2 supplement (Invitrogen).
[…] MTT reagent (3-(4,5-dimethylthizaol-2yl)-2,5diphenyl tetrazolium bromide) (Roche Molecular Biochemicals) was reconstituted in phosphate buffered saline to 5 mg/mL. 10 μL of MTT labeling reagent is added to each well and incubated at 37° C. for 1 h, then imaged. Exocytosis was assessed by automated microscopy and image processing to quantify the amount of endocytosed and exocytosed formazan.
Each assay plate was formatted so that compounds are tested with and without Abeta oligomer on each plate.

[3] = tested on: Abeta oligomer binding to neurons; assay: Abeta 1-42 oligomer binding assay in primary neurons; assay type: cell-based, rat
Experimental: (§1) In this assay, Abeta oligomers were brought in contact with mature primary neurons in culture and their binding was determined by immunohistochemistry (anti-Abeta antibody) and quantified by image processing. The amount of Abeta in neuronal dendrites is assessed by counting the number of labeled puncta on the neuritis. […] This labeling is associated with synapses, co-localizing with the post-synaptic scaffold protein PSD-95 (Lacor et al., '04). […] The number of synapses can also be quantified in this assay by immunofluorochemistry. Similar procedures for binding assays can be found in the literature. […] Review.
(§2) Primary hippocampal neuronal culture was established as in the membrane trafficking assay above. […] Pretreatment with compounds to be tested lasted for 1 hr and addition of Abeta oligomers or no oligomer (vehicle alone) in a final concentration of 70 ul was followed by incubation for an additional 23 hrs.
(§3) The plates were then washed 3× with PBS for 5 min each. The plates were blocked at RT for 1 hr in 5% goat serum and 0.5% Triton X-100 in PBS. […] Primary antibodies were incubated overnight at 4° C. The plates were then washed 3× with PBS for 5 min each. […] Secondary antibodies were incubated at RT for 1 hr. The plates were washed once with PBS. DAPI (4′,6-diamidino-2-phenylindole, Invitrogen) was then applied at 0.03 ug/ul and incubated at RT for 5 min, then washed with PBS.
(§4) Images were captured and analyzed with the Cellomics VTI automated microscope platform, using the Neuronal Profiling algorithm. For statistical analysis, a Tukey-Kramer pair-wise comparison with unequal variance was used.

[4] = tested on: neurons and glia in culture; assay: In vitro neuronal and glial toxicity, acute or chronic dosing; assay type: cell-based; details: up to 50 μM, three days
[5] = In vivo PK, plasma and brain levels; details: male, C57BL/6, mouse
Text: A plasma calibration curve was generated. […] Subcutaneous compound administration was accomplished by […]. Per oral administration was accomplished by gastric gavage. Intravenous administration was accomplished via jugular catheter. […] A brain calibration curve was generated.

[6] = tested on: Abeta oligomer-induced synapse loss; assay: Synapse loss assay (synaptophysin puncta) in primary neurons; assay type: cell-based, rat
Experimental: as §1, §2, §3, §4

[7] = tested on: 100 known receptors; assay: Test for action at 100 known receptors; assay type: binding, human; details: 10 μM
Experimental: It was also tested for its ability to block downstream signaling induced by agonists or antagonists of a given human receptor.

[8] = tested on: neuronal cultures; assay: Nuclear intensity / morphology in neuronal cultures; details: 24 hours

## COc1cc(CCC(C)NCc2ccc(C(F)(F)F)cc2)ccc1O (stereo not drawn) [Compound II]
[1]
  Induction of caspase-3 activity: did not induce caspase-3 activity
[1]; 24 hours
  Block of caspase-3 activation caused by sigma-2 receptor agonist SV-119: blocked caspase-3 activation
[2]; 137 pM oligomers, Compound II 15 uM
  Membrane trafficking deficits induced by AD brain-derived Abeta oligomers: eliminates the membrane trafficking deficits; also recorded: completely eliminated
[2]; 15 micromolar Compound II
  Abeta oligomer-induced membrane traffic changes: blocked
[2]; Table 10A, trafficking or synapse number without Abeta oligomer
  Assay effects in the absence of Aβ: No
[2]; Table 10B
  Functional Neuronal Phenotype: Antagonist
[2]; Table 11, figure in brackets
  Conc at Max Inhib. of Abeta: 10
[2]
  Membrane trafficking when dosed in the absence of Abeta: does not affect trafficking
[2]; listed as CT0109
  Membrane trafficking when dosed in the absence of Abeta: no significant effect
[3]; Compound II 15 uM
  Abeta binding: reduced to essentially control levels
[3]; FIG. 3D
  Reduction of Abeta binding intensity (Abeta labeled puncta): 18%
[3]; imaging processing algorithm
  Partial block of binding of the Abeta oligomer ligand to neurons: about 25%
[4]
  Toxicity (neuron number, glial number, nuclear size, nuclear morphology, neurite length, cytoskeletal morphology): no toxicity
[5]; iv, 10 mg/kg, 180 min
  Brain concentration as multiple of the efficacious brain dose in vivo: 57 ×
[5]; po, 3 h
  Amount in the brain as multiple of the efficacious dose: ~40 ×
[6]; 5 μM of compound
  Share of Abeta oligomer-induced synapse loss eliminated: 100%
[6]; Table 10B
  Block synapse loss: 100%
[6]; compound in vehicle alone
  Synapse number when dosed without Abeta oligomers: No effect
[6]; in words
  Abeta oligomer-induced synapse loss: completely eliminated this synaptic regression
[7]
  Number of receptors with activity >50% (assay window) out of 100: 5
[8]
  Nuclear morphology / nuclear intensity compared to vehicle: did not decrease nuclear intensity
